Experimental data as given in patent US20230310431A1, “COMPOSITION FOR PREVENTING OR TREATING LIVER FIBROSIS, CONTAINING TRIAZOLE DERIVATIVE AS ACTIVE INGREDIENT” (INDUSTRY-ACADEMIC COOPERATION FOUNDTION, YONSEI UNIVERSITY, priority 2020, published 2023).

Legend:
fatty liver mouse model [1] = assay: Measurement of liver function indicators (AST, ALT) in blood; assay type: in vivo, C57BL/6 mice; conditions: high-fat diet group, 50 mg/kg oral twice a week for 7 weeks, versus vehicle-administered control group, FIG. 4
Procedure: (§1) Twenty-four 6-week-old C57BL/6 mice were acclimated for 1 week and then divided into two groups. One group (12 mice) was fed a normal diet, and the other group (12 mice) was fed a high-fat diet for 9 weeks. After 9 weeks, each of the normal diet group and the high-fat diet group was subdivided into two groups, and each of vehicle and 50 mg/kg of ML323 was orally administered thereto twice a week for 7 weeks. Normal diet and high-fat diet were continued during oral administration.
After the experimental period was over, blood was collected from each mouse, and after 30 minutes, the supernatant (plasma) was separated from the blood by centrifugation at 2,000 rpm for 15 minutes. The separated plasma was analyzed by Seoul Clinical Laboratories (SCL) to measure the levels of AST and ALT, which are indicators of liver function.

TGF-β = assay: Expression of inflammatory factors in liver tissue (real-time PCR): TGF-β; assay type: in vivo, C57BL/6 mice; conditions: high-fat diet group, 50 mg/kg oral, versus control group, FIG. 5B
Procedure: as §1
(§2) The tissue harvested from each mouse was added to 1 ml of Easy blue (Intron) and then minced using a homogenizer. 200 μl of chloroform was added to and mixed well with the tissue, and the mixture was incubated for 3 minutes and then centrifuged at 13,200 rpm for 15 minutes at 4° C. After centrifugation, only the supernatant was transferred to a fresh tube, and the same amount of isopropyl alcohol was added thereto and mixed well therewith. After incubation for 10 minutes, centrifugation was performed at 13,200 rpm for 10 minutes at 4° C. After removing the supernatant, the RNA pellet was washed with 70% ethanol and centrifuged at 13,200 rpm for 5 minutes at 4° C. […]
(§3) cDNA was synthesized from the extracted RNA using ReverTraAce RT master mix (TOYOBO), and then gene expression changes were measured using a real-time PCR system (ABI).

COL1A1 [2] = assay: Measurement of cell fibrosis: COL1A1 mRNA in TGF-β-activated LX-2 cells; assay type: cell-based, Human; conditions: TGF-β 2.5 ng/ml, ML323 1, 10, 25 μM, 24 hours, versus cells not treated with ML323, FIG. 2
Procedure: Human hepatic stellate LX-2 cells were seeded in a 6-well plate with DMEM (Welgene) containing 2% fetal bovine serum (Gibco) and 1% penicillin-streptomycin (Gibco), and cultured in an incubator for 24 hours at 37° C. under 5% CO2. Thereafter, the medium was replaced with serum-free DMEM, and the cells were starved for 24 hours. Next, the cells were activated by treatment with TGF-β at a concentration of 2.5 ng/ml, and at the same time, the cells were treated with ML323 at concentrations of 0, 1, 10 and 25 μM. After 24 hours, the cells were harvested and used for gene expression analysis.
as §3

CCL2 = assay: Expression of inflammatory factors in liver tissue (real-time PCR): CCL2; assay type: in vivo, C57BL/6 mice; conditions: high-fat diet group, 50 mg/kg oral, versus control group, FIG. 5B
Procedure: as §1, §2, §3

[3] = tested on: Human hepatic stellate LX-2 cells; assay: Cytotoxicity measurement (WST assay); assay type: cell-based; conditions: 48 hours
Procedure: Human hepatic stellate LX-2 cells were seeded in a 96-well plate with DMEM (Welgene) containing 2% fetal bovine serum (Gibco) and 1% penicillin-streptomycin (Gibco), and cultured in an incubator for 24 hours at 37° C. under 5% CO2. Next, the cells were treated with ML323 at concentrations of 0, 1, 5, 10 and 25 μM. After 48 hours, 10 μl of EZ-Cytox was added to the cell culture medium and reacted for 30 minutes, and the absorbance at 450 nm was measured using a microplate reader.
Cytotoxicity measurement (WST assay)

fatty liver mouse model [4] = assay: Measurement of liver weight change in fatty liver mouse model; assay type: in vivo, C57BL/6 mice; conditions: 50 mg/kg oral twice a week for 7 weeks, FIG. 3
Procedure: as §1
After the experimental period was over, mice were sacrificed, and liver tissues were harvested and weighed.

COL1A1 [5] = assay: Expression of hepatic fibrosis inducers in liver tissue (real-time PCR): COL1A1; assay type: in vivo, C57BL/6 mice; conditions: high-fat diet group, 50 mg/kg oral, FIG. 5A
Procedure: as §1, §2, §3

CDAA diet mice = assay: Immunohistochemical analysis of liver tissue (H&E, F4/80, a-SMA), CDAA diet non-alcoholic fatty liver model; assay type: in vivo, C57BL/6 mice; conditions: CDAA diet group, 50 mg/kg oral, FIG. 7
Procedure: In addition, ten 6-week-old C57BL/6 mice were acclimated for 1 week and then fed CDAA (choline-deficient L-amino-defined) for 8 weeks to induce non-alcoholic fatty liver. Thereafter, the 10 mice were divided into two groups, to which a vehicle and 50 mg/kg of ML-323 were orally administered, respectively, and then liver tissues were stained with H&E, F4/80, and a-SMA.

F4/80 = assay: Expression of inflammatory factors in liver tissue (real-time PCR): F4/80; assay type: in vivo, C57BL/6 mice; conditions: high-fat diet group, 50 mg/kg oral, versus control group, FIG. 5B
Procedure: as §1, §2, §3

fatty liver mouse model [6] = assay: Immunohistochemical analysis of liver tissue (Sirius red, a-SMA), fatty liver mouse model; assay type: in vivo, C57BL/6 mice; conditions: 50 mg/kg oral, FIG. 6
Procedure: as §1
The liver tissue harvested from each mouse was fixed in a 10% formalin solution, and a paraffin block and a slide were prepared using each liver tissue that had been fixed. The degree of fibrosis in liver tissue was measured using Sirius red solution staining and a-SMA immunostaining.

With `Cc1cnc(-c2ccccc2C(C)C)nc1NCc1ccc(-n2ccnn2)cc1` [ML323, N-(4-(1H-1,2,3-triazol-1-yl)benzyl)-2-(24 sopropylphenyl)-5-methylpyrimidin-4-amine] as the compound, how does the “decrease of ALT level in the blood” value (fatty liver mouse model [1]) read?
The value was 70%.

What about the “decrease of AST level in the blood” value (fatty liver mouse model [1]) of the same compound?
Its value is 40%.

And the “mRNA expression level of TGF-β in liver tissue” value (TGF-β)?
Its value is “significantly decreased”.

And the “mRNA expression of COL1A1” value (COL1A1 [2])?
The value was “significantly lower”.

And the “mRNA expression level of CCL2 in liver tissue” value (CCL2)?
Its value is “significantly decreased”.

And the “viability of LX-2 cells versus untreated cells” value ([3]; 0, 1, 5, 10 and 25 μM, FIG. 1)?
Its value is “no significant difference in viability”.

And the cytotoxicity ([3]; all treatment concentrations (up to 25 μM))?
Its cytotoxicity is “did not exhibit cytotoxicity”.

What about the liver weight (fatty liver mouse model [4]; high-fat diet group) of the same compound?
Its liver weight is “decreased”.

What about the “accumulation of fat in liver tissue” value (fatty liver mouse model [4]; high-fat diet group, versus control group) of the same compound?
Its value is “significantly decreased”.

And the “liver weight or size” value (fatty liver mouse model [4]; normal diet group, versus control group)?
Its value is “no significant difference in liver weight or size”.

What about the “mRNA expression level of the COL1A1 gene in liver tissue” value (COL1A1 [5]) of the same compound?
Its value is “greatly decreased”.

And the “inflammation and hepatic fibrosis in liver tissue (H&E staining, f4/80 and a-SMA immunostaining)” value (CDAA diet mice)?
Its value is “significantly decreased”.

And the “mRNA expression level of F4/80 in liver tissue” value (F4/80)?
Its value is “significantly decreased”.

And the “hepatic fibrosis in liver tissue (Sirius red staining and a-SMA immunostaining)” value (fatty liver mouse model [6])?
The value was “significantly decreased”.
